Measurements: US11110105B2, “Compounds, composition and uses thereof for treating cancer” (INSTITUT GUSTAVE ROUSSY, priority 2017, dated 2021)

Key:
[1] = system: B16F10 globin-SL8-intron (B16F10 GI) tumor; test: Tumor challenge, B16F10 globin-SL8-intron in immunocompetent C57BL/6 mice; type: in vivo, mouse; conditions: 18 mg/kg intraperitoneally, days 5, 10 and 15
Description: (§1) (A) Experimental settings. Growth of (B) sarcoma MCA205 or (C) melanoma B16F10 cells that both stably express the globin-SL8-intron construct or (D) MCA205 Wild Type (WT) or (E) B16F10 WT cells that were subcutaneously inoculated on the flank of immunocompetent C57BL/6 mice injected intraperitoneally with 12 mg/kg or 18 mg/kg of isoginkgetin at days 5, 10 and 15 after inoculation. Tumor size was assessed every 3 to 4 days until reaching the established ethical endpoints. Each line represents the tumor size in area (mm^2) of 6 mice in each group. Size in area (mm^2) of (F) MCA205 globin-SL8-intron, (G) B16F10 globin-SL8-intron, (H) MCA205 WT or (I) B16F10 WT tumors subcutaneously inoculated on the flank of immunodeficient Nu/Nu Nude mice injected intraperitoneally with 18 mg/kg of isoginkgetin at days 5, 10 and 15 after inoculation. Data are presented at the day before the endpoints are reached.
Data are given as mean ±SEM. *P<0.05, **P<0.01, ***P<0.001 (unpaired student t test). […] Tumor size was assessed every 3 to 4 days until reaching the established ethical endpoints. […]
C57B1/6J female mice are obtained from Harlan. […] Area of the tumor is recorded every 3 to 4 days until day 27. […] Results are expressed as mean ±SEM. *p<0.05, **P<0.01, ***P<0.001 (ANOVA with Tukey's multiple comparison test comparing all groups).

[2] = system: H2-K^b molecules at the cell surface of B16F10 cells; test: Flow cytometry of H2-K^b expression, B16F10; type: cell-based, mouse
Source text: Flow cytometry analyses of H2-K^b expression on MCA205 and B16F10 cells treated with (A) isoginkgetin. Flow cytometry analyses of transiently expressed H2-K^b expression on A375, A549 and MRC5 cells treated with (B) isoginkgetin.

[3] = MTT viability, human cells (text summary of table 1); type: cell-based; conditions: concentrations used (2.5 and 6.25 μM), A375, A549, MRC5, read-out: viability of human cells upon treatment
Source text: Cancer cells display different intracellular mechanisms that can shape the pool and the quantity of peptides presented on MHC class I (MHC-I) molecules at their surface, leading to reduction of their antigenicity and escape of T-cell recognition. Inventors have shown that PTPs are a major source of peptides for the endogenous MHC-I pathway in vitro. In addition, they have provided the first proof of the positive impact of splicing inhibition on PTPs-dependent antigen presentation by treating HEK cells with the splicing inhibitor isoginkgetin. The latter has been reported to inhibit the spliceosome during the early stages of its assembly. In view to improve antigenicity and immune recognition of cancer cell lines, inventors determined whether isoginkgetin was able to modulate positively the expression and the presentation of tumor associated PTPs-derived antigens (TA-PTPs) at cancer cells surface. For that purpose, the human melanoma cell line A375, the human lung cancer cell line A549 and the normal human fibroblast lung cell line MRC5 were transiently expressing the MHC-I H2-K^b molecule and the PTPs-SL8 epitope from an intron within the β-Globin gene construct (Globin-SL8-intron) and treated with different concentrations of isoginkgetin for 18 h. […]

[4] = MTT assay on A375 cell line; type: cell-based; conditions: human, A375 melanoma cells, read-out: % cell viability (±SEM)
Description: MCA205 mouse sarcoma cell line is cultured at 37° C. under 5% CO2 in RPMI 1640 medium (Life Technologies) in the presence of 1% glutamine, 1% sodium pyruvate, 1% non-essential amino-acids, 1% penicillin/streptomycin and 10% FBS (Life Technologies) under standard conditions. B16F10 mouse melanoma cell line, MRC5 human fibroblast cell line and A375 human melanoma cell line are cultured at 37° C. under 5% CO2 in DMEM medium (Life Technologies) containing 1% glutamine, 1% penicillin/streptomycin and 10% FCS under standard conditions. A549 human lung carcinoma cell line is cultured at 37° C. under 5% CO2 in DMEM/F12+Glutamax I in the presence of 1% Hepes, 1% sodium pyruvate and 10% FBS under standard conditions. Stable MCA205-Globin-SL8-intron cell line are cultured under the same condition as MCA205 cell line with additional 2 mg/ml G418 (geneticin from Life Technologies) for selection. Stable B16F10-Globin-SL8-intron cell line are cultured under the same condition as B16F10 cell line with additional 2 mg/ml G418 (geneticin from Life Technologies) for selection. The SL8/Kb-specific (B3Z) T-cell reporter hybridoma are cultured at 37° C. under 5% CO2 in RPMI 1640 medium (Life Technologies) in the presence of 1% glutamine, 0.1% β-galactosidase, 1% penicillin/streptomycin and 10% FCS under standard conditions. […]

[5] = system: B16F10 globin-SL8-intron tumors; test: Tumor challenge, B16F10 globin-SL8-intron in immunodeficient Nu/Nu nude mice; type: in vivo, mouse; conditions: 18 mg/kg intraperitoneally, days 5, 10 and 15
Description: as §1
Each line represents the tumor size in area (mm^2) of at least 6 mice in each group. The C right panel represents the tumor size at day 27. […]
Inventors then assessed the requirement of the immune response for isoginkgetin to reduce tumor growth Immunodeficient Nu/Nu nude mice were inoculated subcutaneously with either MCA205 or B16F10 cells that stably express the Globin-intron-SL8 or WT, and were treated with the same settings as previously described (FIG. 9A). […]

SMILES | tumor growth [1] | expression of the H2-K^b molecules at the cell surface [2] | viability [3] [%] | viability at 2.5 µM ([4]; A375, 2.5 μM) [%] | viability at 6.25 µM ([4]; A375, 6.25 μM) [%] | tumor growth [5]
COc1ccc(-c2cc(=O)c3c(OC)cc(OP(=O)([O-])[O-])c(-c4cc(-c5cc(=O)c6c(OC)cc(OP(=O)([O-])[O-])cc6o5)ccc4OC)c3o2)cc1.[Na+].[Na+].[Na+].[Na+] [IM2P2] | had no effect on growth | is not affected |  |  |  | 
COc1ccc(-c2cc(=O)c3c(O)cc(O)c(-c4cc(-c5cc(=O)c6c(O)cc(O)cc6o5)ccc4OC)c3o2)cc1 [Isoginkgetin, isoginkgetin] |  |  | > 80 | 100 | 100 | No effect
